What was measured:
[1] = target: T1, THRα LBD (His-GST-dLBT-THRα LBD) (Homo sapiens, UniProt P10827); experiment: THR-FRET (time-resolved fluorescence resonance energy transfer) agonist activity assay, THRα; assay type: biochemical; conditions: 24 h at room temperature
T1 construct: made in house; host or cells: E. coli BL21 (DE3)
T1 sequence (P10827 163-407 isoform P10827-2): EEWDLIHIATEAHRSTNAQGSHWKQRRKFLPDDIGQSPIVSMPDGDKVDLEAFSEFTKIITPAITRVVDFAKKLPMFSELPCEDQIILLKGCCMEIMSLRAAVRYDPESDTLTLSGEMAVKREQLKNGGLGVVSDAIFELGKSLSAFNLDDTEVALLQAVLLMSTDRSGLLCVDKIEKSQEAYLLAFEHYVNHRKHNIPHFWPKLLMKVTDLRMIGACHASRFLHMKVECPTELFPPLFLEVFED
Text: (§1) Experimental Example 1: Detection of Agonist Activities of Compounds Against THRα/β Based on Time-Resolved Fluorescence Resonance Energy Transfer (THR-FRET)
(§2) 1. Construction of THRα/β Overexpression Vectors
(§3) By visiting NCBI, the THRα/β LBD domain sequences were found. The pET21-His-GST-dLBT-THRα LBD and pET21-His-GST-dLBT-THRβLBD overexpression vectors were constructed by the fusion method, and sequenced to confirm the accuracy of the sequences.
(§4) 2. Prokaryotic Expression of Recombinant Proteins in E. coli
(§5) The THRα LBD and THRβLBD overexpression vectors confirmed by sequencing were transfected into E. coli cells BL21 (DE3), and spread on an ampicillin-resistant agar plate. Monoclones were picked out and amplified in an LB medium, and transferred into 1 L LB at a ratio of 1:100 for large-scale culture. When the OD value was at 0.8 to 1.2, 0.5 mM isopropyl-beta-D-thiogalactopyranoside (IPTG) was added, and induced overnight at 18° C. The bacteria were harvested, disrupted, and purified via the GST column and the molecular sieve to obtain two proteins His-GST-dLBT-THRα LBD and His-GST-dLBT-THRβLBD.
(§6) 3. Preparation of Compounds and Formulation of Reaction System
(§7) The proteins were taken out from a refrigerator at −80° C. The protein s with the GST-tagged THRα/p LBD domain and the Eu-labelled GST antibodies were thawed slowly on ice, and an assay buffer containing a final concentration of 5 mM dithiothreitol (DTT) was formulated.
(§8) 3.1 Preparation of Compounds
(§9) The starting concentration of the compound was 10 μM (in DMSO). The compound (100 μM in DMSO) was subjected to 3-fold isogradient dilution with DMSO to obtain a total of 11 isogradient concentrations. Subsequently, the above compounds at the isogradient concentration were further subjected to 50-fold dilution with an assay buffer containing 5 mM DTT.
(§10) 3.2 Formulation of THR-FRET Reaction System
(§11) The final concentrations of all components were calculated based on a system with a final volume of 20 µL per well. To […] of assay buffer containing 5 mM DTT, the GST-tagged THRα/β proteins, the SRC2 ([…]) polypeptide, XL665 (Cisobio, #610SAXLB), and the Eu-labeled GST antibody were added, and the final concentrations were 2 nM, 200 nM, 0.05 nM, and 7.6 nM respectively to formulate 18 μL of reaction mixture of the proteins, polypeptide, and antibody per well.
(§12) 18 μL of reaction mixture and 2 μL of diluted compound were added into an optiplate-384-well plate, and reacted at room temperature for 24 h.
(§13) The plate was read using an MD i3x multi-mode microplate reader with the excitation and emission wavelengths of 340 nm and 665 nm, respectively. The intensity of light at a wavelength of 616 nm generated by europium excited by 340 nm wavelength light from the MD i3x multi-mode microplate reader was used as the background. According to the different activation degrees of different compounds against THRα and THRβ, the intensity of the emission light at a wavelength of 665 nm generated by exciting XL665 with the exciting light at a wavelength of 616 nm was varied. The intensity ratio between these two light wavelengths (665 nm, 616 nm) was used as the activation activity of the compound against THRα or THRβ, and was normalized against the ratio in the vehicle DMSO group. The dose-response curve was fitted with four parameters using the GraphPad Prism 6.0 software, and the EC50 value was calculated.

[2] = target: T2, THRβ LBD (His-GST-dLBT-THRβLBD) (Homo sapiens, UniProt P10828); experiment: THR-FRET (time-resolved fluorescence resonance energy transfer) agonist activity assay, THRβ; assay type: biochemical; conditions: for EC50: 24 h at room temperature; for Selectivity (THRα/THRβ): ratio of EC50 THRα/THRβ
T2 construct: made in house; host or cells: E. coli BL21 (DE3)
T2 sequence (P10828 217-461 limits assumed): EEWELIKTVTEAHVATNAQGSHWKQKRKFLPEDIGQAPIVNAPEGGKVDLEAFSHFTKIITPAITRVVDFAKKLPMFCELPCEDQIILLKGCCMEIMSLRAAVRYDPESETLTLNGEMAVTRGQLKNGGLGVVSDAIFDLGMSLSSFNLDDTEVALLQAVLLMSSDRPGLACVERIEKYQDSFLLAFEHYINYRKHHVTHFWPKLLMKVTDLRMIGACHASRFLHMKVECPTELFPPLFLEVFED
Text: as §1, §2, §3, §4, §5, §6, §7, §8, §9, §10, §11, §12, §13

THRβ (pGAL4-THRβ-LBD) = target: T3, THRβ (pGAL4-THRβ-LBD) (Homo sapiens, UniProt P10828); experiment: Reporter gene (Dual-Glo luciferase) agonist activity assay in HEK293T cells, THRβ; assay type: cell-based; conditions: ratio of EC50 THRα/THRβ
T3 construct: expressed in transfected cells; host or cells: HEK293T
T3 sequence (P10828 217-461): T2 sequence (P10828 217-461 limits assumed)
Text: Experimental Example 2: Detection of Agonist Activities of Compounds Against THRα and THRβ Based on Reporter Gene Activity Assay Method
1.1 Construction and Preparation of Plasmids pGAL4-THR-LBD and pG5-Luc
The pGAL4-THRα-LBD and pGAL4-THRβ-LBD plasmids used in the reporter gene assay system were constructed by a conventional molecular cloning method comprising the following main steps: the cDNA sequences of THRα (NM_003250) and THRβ(NM_000461) corresponding to the amino acid sequences of THRα (163-407AA) and THRβ(217-461AA) were inserted into the BamHI and NotI enzyme digestion sites of the pGAL4 vector by the PCR technique respectively to obtain the pGAL4-THRα-LBD and pGAL4-THRβ-LBD plasmids; the pG5-Luc (#E249A) and pRL-TK (#E2241) plasmids were purchased from Promega; the plasmids were transfected into the E. coli DH5a by the CaCl2 method, and after further culture and amplification, the plasmids were purified by Plasmid Extraction Kits (TIANGEN, #D107) to obtain the corresponding plasmid DNAs.
1.2 Co-Transfection of Plasmids into HEK293T Cells and Treatment with Compounds
The HEK293T cells were inoculated into a 96-well plate at a density of 1×10^4/well the day before plasmid transfection. Cell transfection was conducted according to the instructions of the transfection reagent FuGENE® HD (Promega, #E2311). The main steps were as follows: taking one well as an example here, the plasmids pGAL4-THRα-LBD or pGAL4-THRβ-LBD, pG5-Luc, and pRL-TK were added in the proportions of 20 ng, 50 ng, and 5 ng to 10 μL of Opti-MEM™ I medium (Gibco, #11058021) and mixed well; subsequently, 0.25 μL of FuGENE® HD was added, mixed well, and then left at room temperature for 5 min; afterwards, […] was added to the cell wells containing 100 μL of culture medium. After cell co-transfection for 6 h, the compound was diluted in a 3-fold gradient with dimethyl sulfoxide at the highest concentration of 1 μM. The compound was added to the cell culture medium at a total of 10 concentrations for treatment for 24 h. There were a total of two duplicate wells for each concentration. Triiodothyronine (T3) was used as the positive control.
1.3 Dual-Glo Luciferase Assay
After the cells were treated with the compound for 24 h, the cells were assayed according to the instructions of Dual-Glo® Luciferase Assay System (Promega, #E2940). The main steps were as follows: 50 μL of culture medium was aspirated from each well and discarded, and then 50 μL of Dual-Glo® Luciferase reagent was added and oscillated at room temperature for 10 min; 80 μL of lysis reaction solution was measured into a white opaque optiPlate-96-well plate, and the luminescence signal value (Firefly-Luc) of the Firefly luciferase was detected using an MD i3x multi-mode microplate reader; 40 μL of Dual-Glo® Stop & Glo® reagent was then added, and oscillated at room temperature for 10 min; the luminescence signal value (Renilla-Luc) of the Renilla luciferase was then detected using an MD i3x multi-mode microplate reader. The Firefly-Luc/Renilla-Luc ratio was used as the activation activity of the compound against THR, and was normalized against the ratio in the vehicle DMSO group; the dose-response curve was fitted with four parameters using the GraphPad Prism6.0 software, and the EC50 value was calculated.

| SMILES | EC50 [1] | EC50 [2] | Selectivity (THRα/THRβ) [2] | Selectivity (THRα/THRβ) (THRβ (pGAL4-THRβ-LBD)) |
| --- | --- | --- | --- | --- |
| Cc1nn(-c2cc(Br)c(Cn3ccc(=O)c4ccccc43)c(Br)c2)c(=O)[nH]c1=O [Compound 43] | 0.1 to 1 µM | 0.05 to 0.1 µM | †† (10 > THRα/β > 1) | † (5 ≥ THRα/β) |
| Cc1cccc2c1c(=O)ccn2Cc1c(Cl)cc(-n2ncc(=O)[nH]c2=O)cc1Cl [Compound 14] | 0.1 to 1 µM | 0.1 to 1 µM | †† (10 > THRα/β > 1) | † (5 ≥ THRα/β) |
| Cc1cccc2c1c(=O)ccn2Cc1c(Br)cc(-n2ncc(=O)[nH]c2=O)cc1Br [Compound 18] | 0.05 to 0.1 µM | < 0.05 µM | †† (10 > THRα/β > 1) | †† (10 ≥ THRα/β > 5) |
| O=c1cnn(-c2cc(Cl)c(Cn3ccc(=O)c4ccccc43)c(Br)c2)c(=O)[nH]1 [Compound 3] | 0.1 to 1 µM | 0.1 to 1 µM | †† (10 > THRα/β > 1) | † (5 ≥ THRα/β) |
| Cc1cccc2c1c(=O)ccn2Cc1c(Cl)cc(-n2nc(C(F)F)c(=O)[nH]c2=O)cc1Cl [Compound 47] | 0.1 to 1 µM | < 0.05 µM | †† (10 > THRα/β > 1) | † (5 ≥ THRα/β) |
| O=c1cnn(-c2cc(Cl)c(Cn3ccc(=O)c4c(Cl)cccc43)c(Cl)c2)c(=O)[nH]1 [Compound 13] | 1 to 10 µM | 0.1 to 1 µM | †† (10 > THRα/β > 1) | † (5 ≥ THRα/β) |
| Cc1cccc2c1c(=O)ccn2Cc1c(Cl)cc(-n2nc(C(F)F)c(=O)[nH]c2=O)cc1Br [Compound 48] | < 0.05 µM | < 0.05 µM | †† (10 > THRα/β > 1) | † (5 ≥ THRα/β) |
| [2H]C(F)(F)c1nn(-c2cc(Br)c(Cn3ccc(=O)c4ccccc43)c(Br)c2)c(=O)[nH]c1=O [Compound 71] | 0.05 to 0.1 µM | < 0.05 µM | †† (10 > THRα/β > 1) | †††† (THRα/β > 20) |
| O=c1cnn(-c2cc(Br)c(Cn3ccc(=O)c4ccccc43)c(Br)c2)c(=O)[nH]1 [Compound 2] | 0.1 to 1 µM | < 0.05 µM | †† (10 > THRα/β > 1) | † (5 ≥ THRα/β) |
